These are literature values, as cited in patent publication US10927398B2, “Compositions for CYP450 phenotyping using saliva samples” (Concordia University, Inc., priority 2015, dated 2021).

Read-outs that look alike come from different tables or passages of the source.

The conditions of data set [1]: cited from earlier work.
The conditions of data set [2]: cited from earlier work. This is another data set of the same source.
The next data set has as its system plasma protein. The conditions noted are these: cited from earlier work.
[3] abbreviates: Table of Exemplary Drugs, CYP3A4.
[4] abbreviates: Table of Exemplary Drugs, CYP2D6.
Setting [5] is: Table of Exemplary Drugs, CYP2C9.
[6] abbreviates: Table of Exemplary Drugs, CYP1A2.

Consider `CC[C@H]1OC(=O)[C@H](C)[C@@H](O[C@H]2C[C@@](C)(OC)[C@@H](O)[C@H](C)O2)[C@H](C)[C@@H](O[C@@H]2O[C@H](C)C[C@H](N(C)C)[C@H]2O)[C@](C)(O)C[C@@H](C)C(=O)[C@H](C)[C@@H](O)[C@]1(C)O` [Erythromycin], for which, in data set [1] (setting [3]), the “ORAL BIOAVAILABILITY” value is 30-65%. For the same compound, the “HALF-LIFE” value in data set [2] (setting [3]) was 1 to 1.5 h. In addition, the “PLASMA PROTEIN BINDING” value with plasma protein (setting [3]) is given as 90%.

On to `CNC1(c2ccccc2Cl)CCCCC1=O` (stereo not drawn) [Ketamine], for which the “ORAL BIOAVAILABILITY” value in data set [1] (in vivo) is “IM: 90-93%, PO: 16%”. Further, the “HALF-LIFE” value in data set [2] (in vivo) is 2 to 3 h. Further, the “PLASMA PROTEIN BINDING” value in the data set with plasma protein (plasma) is on record as 47%.

For `C#C[C@]1(O)CC[C@H]2[C@@H]3CCc4cc(O)ccc4[C@H]3CC[C@@]21C` [Ethinyl Estradiol], in data set [1] (setting [3]), the “ORAL BIOAVAILABILITY” value is 38-48%. For the same compound, the “HALF-LIFE” value in data set [2] (setting [3]) was 7 to 36 h. Further, the “PLASMA PROTEIN BINDING” value in the data set on plasma protein (setting [3]) is reported as 97-98% ^.

Take `CC(=O)N1CCN(c2ccc(OCC3COC(Cn4ccnc4)(c4ccc(Cl)cc4Cl)O3)cc2)CC1` (stereo not drawn) [Ketoconazole (Nizoral), Ketoconazole]: in data set [1] (setting [3]), the “ORAL BIOAVAILABILITY” value is recorded as 75%. The “HALF-LIFE” value in data set [2] (setting [3]) is 2 to 8 h. Besides, the “PLASMA PROTEIN BINDING” value in the data set with plasma protein (setting [3]) is given as 99%.

`Nc1c2c(nc3ccccc13)CCCC2` [Tacrine]: the “ORAL BIOAVAILABILITY” value in data set [1] (in vivo, po) was 2.4-36%. Besides, the “HALF-LIFE” value in data set [2] (in vivo) was 2 to 4 h. Moreover, the “PLASMA PROTEIN BINDING” value in the data set with plasma protein (plasma) is 55%.

Take `CC(C)Nc1cccnc1N1CCN(C(=O)c2cc3cc(NS(C)(=O)=O)ccc3[nH]2)CC1` [Delavirdine (Rescriptor), Delavirdine]: in data set [1] (setting [3]), the “ORAL BIOAVAILABILITY” value is reported as 85%. Moreover, the “HALF-LIFE” value in data set [2] (setting [3]) was 5.8 h. Moreover, in the data set with plasma protein (setting [3]), the “PLASMA PROTEIN BINDING” value is 98%.

Turning to `CN1CCN2c3ccccc3Cc3ccccc3C2C1` (stereo not drawn) [Mianserin], the “ORAL BIOAVAILABILITY” value in data set [1] (setting [4]) is 20-30%. Moreover, the “HALF-LIFE” value in data set [2] (setting [4]) was 1.4 h. The “PLASMA PROTEIN BINDING” value in the data set with plasma protein (setting [4]) was 90%.

Consider `CCc1nn(CCCN2CCN(c3cccc(Cl)c3)CC2)c(=O)n1CCOc1ccccc1` [Nefazodone], for which the “ORAL BIOAVAILABILITY” value in data set [1] (setting [3]) is 20%. Also, the “HALF-LIFE” value in data set [2] (setting [3]) was 2 to 4 h. Further, in the data set with plasma protein (setting [3]), the “PLASMA PROTEIN BINDING” value was more than 99%.

For `COc1ccc(C(=O)Nc2ccccc2CCC2CCCCN2C)cc1` (stereo not drawn) [Encainide], the “ORAL BIOAVAILABILITY” value in data set [1] (setting [4]) is recorded as 25-90%. Besides, the “HALF-LIFE” value in data set [2] (setting [4]) is 1.5 to 11.3 h. Besides, the “PLASMA PROTEIN BINDING” value in the data set on plasma protein (setting [4]) is listed as 70.5-78% ^.

As for `CCN(CC)CCN1C(=O)CN=C(c2ccccc2F)c2cc(Cl)ccc21` [Flurazepam (Dalmane), Flurazepam], the “ORAL BIOAVAILABILITY” value in data set [1] (setting [3]) is listed as 83%. The “HALF-LIFE” value in data set [2] (setting [3]) is 2.3 h. Also, the “PLASMA PROTEIN BINDING” value in the data set with plasma protein (setting [3]) was 97.2%^.

Regarding `CN(C/C=C/C#CC(C)(C)C)Cc1cccc2ccccc12` [Terbinafine], the “ORAL BIOAVAILABILITY” value in data set [1] (setting [5]) is 40%. The “HALF-LIFE” value in data set [2] (setting [5]) is 22 to 26 h. The “PLASMA PROTEIN BINDING” value in the data set on plasma protein (setting [5]) is given as more than 99%.

As for `COc1ccccc1Oc1c(NS(=O)(=O)c2ccc(C(C)(C)C)cc2)nc(-c2ncccn2)nc1OCCO` [Basentan (Tracleer), Basentan], the “ORAL BIOAVAILABILITY” value in data set [1] (setting [3]) is given as 50%. In addition, the “HALF-LIFE” value in data set [2] (setting [3]) was 5 h. The “PLASMA PROTEIN BINDING” value with plasma protein (setting [3]) is recorded as 98%.

As for `Cc1nccn1CC1CCc2c(c3ccccc3n2C)C1=O` (stereo not drawn) [Ondansetron], the “ORAL BIOAVAILABILITY” value in data set [1] (setting [6]) is reported as 100%; in data set [1] (setting [4]) it was 56%. Also, the “HALF-LIFE” value was 3 to 6 h in data set [2] (setting [6]) and 3 to 6.2 h in data set [2] (setting [4]). The “PLASMA PROTEIN BINDING” value in the data set on plasma protein (setting [6]) and in the data set on plasma protein (setting [4]) was 70-76% ^ each time.

As to `CN1[C@@H]2CC[C@H]1C[C@@H](OC(=O)c1c[nH]c3ccccc13)C2` [Tropisetron], the “ORAL BIOAVAILABILITY” value in data set [1] (setting [4]) is 60-100%. The “HALF-LIFE” value in data set [2] (setting [4]) was 5.6 to 8.6 h. In addition, the “PLASMA PROTEIN BINDING” value in the data set on plasma protein (setting [4]) is reported as 71%.

Turning to `COc1cc(N)c(Cl)cc1C(=O)NC1CCN(CCCOc2ccc(F)cc2)CC1OC` (stereo not drawn) [Cisapride (Propulsid), Cisapride], in data set [1] (setting [3]), the “ORAL BIOAVAILABILITY” value is on record as 35-65%. In addition, the “HALF-LIFE” value in data set [2] (setting [3]) was 6 to 12 h. For the same compound, the “PLASMA PROTEIN BINDING” value in the data set on plasma protein (setting [3]) is reported as 98%.
